Source: patent US9957273B2, “5-substituted 7- [4-(2-pyridyl)phenylmethylamino] -3-isopropylpyrazolo4,3-D]pyrimidine derivatives, use thereof as medicaments, and pharmaceutical compositions” (USTAV EXPERIMENTALNI BOTANIKY AV CR, V.V.I., priority 2015, dated 2018)

System: HL60 (human promyelocytic leukaemia)
Experiment: MTT cytotoxicity assay, leukemic cell line HL60
Format: cell-based
Conditions: Homo sapiens, HL-60, 72 h, three days
Text: Cytotoxicity of the compounds is the major property determining their antileukemic efficacy in vivo. One of the parameters used, as the basis for cytotoxicity assays, is the metabolic activity of viable cells. For example, a microtiter assay, which uses (3-(4,5-dimethylthiazol-2-yl)-2,5-diphenyltetrazolium bromide (MTT), is widely used to quantitate cell proliferation and cytotoxicity. This assay is widely used in drug screening programs and in chemosensitivity testing. Because only metabolically active living cells reduce MTT to correspond purple formazan dye, these assays detect viable cells exclusively. The quantity of reduced MTT corresponds to the number of vital cells in the culture.
The compounds were assayed using the following leukemic cell lines: K562 (human chronic myelogenous leukaemia), HL60 (human promyelocytic leukaemia), CEM (human lymphoblastoid leukaemia), THP1 (human monocytic cell line), MV4; 11 (acute myelocytic leukemia). All cell lines were grown in RPMI medium supplemented with fetal bovine serum and L-glutamine and maintained at 37° C. in a humidified atmosphere with 5% CO2. For cytotoxicity assays, 2000-5000 cells were seeded into each well of 96 well plate, allowed to stabilize for at least 8 h and then tested compounds were added at various concentrations ranging from 100 to 0.01 μM in triplicates. After three days, MTT solution (5 mg/ml; Sigma, St. Louis, USA) was added to cells and medium was replaced with DMSO after five hours. The absorbance was measured at 620 nm by employing a microplate reader. MTT assays were repeated 3 times for each drug application and untreated cells were used as reference.

`CC(C)c1[nH]nc2c(NCc3ccc(-c4ccccn4)cc3)nc(NCC(O)CN)nc12` (stereo not shown) [Compound 45] was tested. Which IC50 did it give?
Its IC50 is 0.62 µM.
